Data: a melting point compilation (Tetko et al.; mined from patent text by program, amines drawn as free bases though some values may be those of a salt)

SMILES	melting point
Cn1c(COc2ccc(CC3SC(=O)NC3=O)cc2)nc2ccc(Oc3ccc(NC(=O)c4cc(C(C)(C)C)c(O)c(C(C)(C)C)c4)cc3)cc21 (stereo unspecified)	160 to 162 °C
COc1ccc(Oc2nc(Nc3cccc(C(=O)O)c3)nc(Oc3ccc(C#N)cc3)n2)cc1	240 to 242 °C
CC(C)(N)CSCCO	49 to 51 °C
Cc1ccc(-c2c(C(=O)NCc3cc(C(F)(F)F)cc(C(F)(F)F)c3)n(CCC(C)CO)c(=O)c3ncccc23)cc1 (racemic)	129 to 130 °C
C#CCOc1c(OC)cc(/C=C/C(=O)/C=C/c2cc(OC)c(OC)c(OC)c2)cc1OC	118 to 120 °C
COC(CN(C)c1nccc(Oc2ccc(NC(=O)c3cc(F)cc(N4CCCCC4)c3)c3ccccc23)n1)OC	135 to 136 °C
Cc1ccc(-c2cc(F)c(F)cc2-c2ccc(S(C)(=O)=O)cc2)cc1Cl	138 to 139 °C
CSCc1cnc2c(NC(=O)c3c(Cl)cccc3Cl)cccc2c1Cl	173 to 175 °C
CC1CN=C2C=CC(c3cccnc3)=NN21 (stereo unspecified)	104 to 105 °C
O=C(Cl)C(Oc1cccc(C(F)(F)F)c1)c1ccc(Cl)cc1 (stereo unspecified)	96 to 98 °C
c1ccc2c3c([nH]c2c1)CNCC3	190 to 191 °C
O=C(Nc1ccc(Cl)cc1)Nn1cnc2c(O)cccc2c1=O	266 to 268 °C
CCCCCCCCOc1ccc(C(=O)c2ccccc2)c(O)c1Cc1cc(C)cc(-n2nc3ccccc3n2)c1O	124 to 126 °C
COc1cccc(C=NNC(=O)OC(C)(C)C)c1	136 to 137 °C
CCN1CCNC(=O)c2ccc(Nc3ncc(Cl)c(Nc4ccccc4OCCN4CCOCC4)n3)cc21	223 to 225 °C
CC(=O)OCc1nc([N+](=O)[O-])c(C#N)n1C	92 to 93 °C
Cc1ccccc1Nc1nc(N(C)c2ccccc2)c2sccc2n1	198 to 200 °C
O=S(=O)(NCCNCC=Cc1ccc(Cl)cc1)c1cccc2cnccc12	120 to 123 °C
Clc1ccc(Cn2ccc3cc(OCc4ccc5ccccc5n4)ccc32)cc1	102 to 104 °C

SMILES	melting point
CCN(CC)c1ccc2nc3c4ccccc4c(=Nc4ccccn4)cc-3oc2c1	169 to 170 °C
COc1ccc(Nc2ccc(OCc3ccccc3)cc2)c(C(=O)O)c1	167 to 168 °C
COc1cc(Nc2nc3cccc(-c4ccn[nH]4)c3o2)cc(OC)c1OC	185 to 189 °C
Cc1cc(OCC(F)(F)F)c([N+](=O)[O-])c(OCC(F)(F)F)n1	72.8 to 73.2 °C
CCOC(=O)c1ccc(OCCc2c(CCNS(=O)(=O)Cc3ccc(Cl)c(Cl)c3)n(C(c3ccccc3)c3ccccc3)c3ccc(Cl)cc23)cc1F	83 to 85 °C
CSC(=C(C#N)C#N)N(C)N=Cc1ccccc1	159 to 160 °C
O=C1CN(c2ccccc2)C(=O)N1C(=O)c1cccc(Oc2ccccc2)c1	157 to 158 °C
CCOC(=O)C(C)Oc1ccc2c(-c3ccc(Cl)cc3)noc2c1 (stereo unspecified)	95 °C
CN(C)c1nccc(-c2ccc(-c3ccc(N(c4ccccc4)c4ccccc4)cc3)cc2)n1	140 to 141 °C
NC1(Cc2ccc(C(=O)Nc3ccncc3)cc2)C=CC=CC1 (stereo unspecified)	76.8 to 77.6 °C
O=Cc1c2ccccc2c(OCCO)c2ccccc12	142 to 144 °C
CC(=O)C(C(C)=O)C(C(C)=O)C(C)=O	193 to 194 °C
NNC(=O)c1cc2cc(Cl)ccc2s1	90 to 91 °C
BrCCCCCCCCn1nnc(-c2ccccc2)c1-c1ccccc1	90 to 91 °C
CC(=O)Cc1ccc(SCCCBr)cc1	40 to 41 °C
CCCc1c(OCCCCOc2ccc(C(=O)c3cccc(C(=O)O)c3)cc2CCC(=O)O)ccc2c1OCCC2=O	177 to 180 °C
Cc1ccc(=NC(=O)C(F)(F)F)n(-c2cccc(C(F)(F)F)c2)c1	115 °C
CC(C)S(=O)(=O)NC(=O)Nc1ccc(Cl)c(Cl)c1	151 to 154 °C
CC(C)(C)OC(=O)Nc1c(F)cccc1OCc1ccccc1	103 to 106 °C

SMILES	melting point
CCCCCCCCCCCCCCCCOCC(O)CN1CCC(C#N)(c2ccccc2)CC1 (stereo unspecified)	69 to 70 °C
CC(C)(Cc1ccc(OC(F)(F)F)cc1)C(=O)C(C)(C)n1cncn1	100 °C
CCOC(=O)c1csc(/C=C/c2cccc(N)c2)n1	112 to 113 °C
Cc1nn(-c2c(Cl)cc(C(F)(F)F)cc2Cl)nc1SC#N	115 to 117 °C
O=C(O)C(=O)c1ccc2c(c1)Cc1ccccc1-2	135 to 137 °C
CCOCc1cc2cc(Br)ccc2oc1=Nc1ccccc1	78 to 80 °C
CCOC(=O)C(C)(C)OC1(CCCNC(=O)c2cc(Cl)ccc2OC)C=CC(c2ccccc2)=CC1 (stereo unspecified)	< 20 °C
CNC(=S)C1=CC(CF)(CF)Oc2ccc([N+](=O)[O-])cc21	134 to 135 °C
Cc1nc2c(s1)-c1nc(Nc3ccc(N4CCOCC4)cc3)ncc1CC2	236 to 237 °C
CC(C)c1ncc(CCCOc2nn(Cc3ccccc3)cc2CC(=O)O)c(Oc2ccc(Cl)cc2Cl)n1	98 to 99 °C
C=C(CC1(CC(=C)c2ccc(C(=O)Nc3ccccc3N)cc2)C(=O)N(C)C(=O)N(C)C1=O)c1ccc(C(=O)Nc2ccccc2N)cc1	161 to 163 °C
CCOC(=O)Cc1ccc(-c2ccc(-c3ccccc3)cc2)o1	77 to 78 °C
CCN(CC)Cc1ccc2[nH]c(-c3ccccc3)cc(=O)c2c1	228 to 230 °C
Cn1ncnc1/C=C/c1ccccc1	67 to 70 °C
CC(=O)Oc1c(C2CCN(CCCCNC(=O)c3ccc(-c4ccc(C#N)cc4)cc3)CC2)ccc2ccccc12	115 to 120 °C
CCOC(=O)COc1ccc(SCc2ccc3sc(-c4ccc(C(F)(F)F)cc4)nc3c2)cc1C	138 to 140 °C
O=C1COc2ccc(C3=Nc4ccccc4SC3c3ccc(Cl)cc3)cc2N1 (stereo unspecified)	153 to 155 °C
Cc1nc(-c2ccc(C#CC3(O)CN4CCC3CC4)cc2)no1 (single isomer, unassigned; (-))	211 to 212 °C

The next lines start with the values.

melting point	SMILES
188 to 190 °C	O=C1CCCN(C(=O)c2ccc([N+](=O)[O-])cc2)c2cccnc21
110 °C	CC(=O)c1c(Cl)cc(Cl)cc1OCC(=O)O
87 to 89 °C	Cc1cn(C2COC(CO)C(O)C2)c(=O)[nH]c1=O (stereo unspecified)
106 to 108 °C	CCOCC1COc2cc3c(Cl)c(C(=O)OCC)cnc3cc2O1 (stereo unspecified)
214 to 215 °C	Nc1ccc(N2C(=O)CCCC2=O)cc1
145 °C	Cc1ccc(NCCNS(C)(=O)=O)cc1O
189 to 196 °C	O=C(NCC12CC3CC(CC(C3)C1)C2)c1c(Cl)ccc2nc(N3CCC(C(=O)NO)CC3)ccc12
190 to 195 °C	O=C(O)CCCCSc1nc(-c2ccccc2)c(-c2ccccc2)[nH]1
> 350 °C	N#Cc1cc(C=C2SC(=S)NC2=O)cc(O)c1O
152 to 154 °C	COC(=O)c1c(C(=O)OC)c2n(c1C)Cc1ccccc1C2
218 to 219 °C	CC(O)c1cc2c(s1)C(=O)c1c(C(C)O)csc1C2=O (stereo unspecified)
258 to 263 °C	Cc1cc(C#N)c(=O)[nH]c1C
130 to 131 °C	CCC(=O)N1Cc2cn[nH]c2-c2ccccc21
65 to 67 °C	CCOC(=O)c1cc2ccccc2n1CC#N
240 to 241 °C	CCC(=O)N1CCC(NC(=O)Nc2ccc([N+](=O)[O-])cc2)CC1
112 to 114 °C	O=C1C(=O)c2ccccc2C2=C1SCC1(CCN(CCCc3ccccc3)CC1)O2
146 to 148 °C	COC(=O)CCc1ccc(C(=O)O)cc1
215 to 217 °C	CS(=O)(=O)N1CC2(COc3cc4c(cc32)OCO4)c2ccccc21 (stereo unspecified)
106 to 107 °C	O=C1Oc2ccccc2CN1C1CCN(Cc2ccccc2)CC1
85.5 to 86.5 °C	CCOC(=O)Cc1csc(-c2ncccc2O)n1
117 to 119 °C	O=C(CBr)c1ccc(O)c(CO)c1
169 to 171 °C	OC(CC1CCNCC1)(c1ccc(F)cc1)c1ccc(F)cc1
188 to 192 °C	CCN1CC2=C(C1)CN(c1c(F)cc3c(=O)c(C(=O)O)cn(C4CC4)c3c1F)C2

melting point	SMILES
56 to 58 °C	O=C1NC[C@H]2CCC[C@H]2O1 (relative stereo)
152 °C	CNc1cc(SCC(C)O)c(N)cc1[N+](=O)[O-] (stereo unspecified)
131 to 132 °C	COC(=O)C1CC(=O)C(NC(C)=O)=C(O)C1 (stereo unspecified)
172 to 173 °C	COc1ccc(COC(=O)C2=C3[C@@H](C)[C@H](C)[C@@H]3S[C@@H]3[C@H](NC(=O)Cc4ccccc4)C(=O)N23)cc1
167 to 168 °C	CCOC(=O)c1cc(O)c(C(=O)c2ccccc2)c([N+](=O)[O-])c1
179 °C	CCCN1CCn2c(=S)[nH]c3cccc(c32)C1C (stereo unspecified)
225 to 227 °C	O=C(O)COc1ccc2c(-c3ccoc3)noc2c1Cl
146 to 148 °C	Cc1nc2ccccc2nc1C(=O)OCCO
> 300 °C	Cc1ccccc1-c1ccc2c(c1)CCCc1c-2nc2ccc(F)cc2c1C(=O)O
160 to 165 °C	Cc1ccc2c(c1)C1CN(CCCC#N)CCC1N2 (stereo unspecified)
192 to 194 °C	COC(=O)c1ccc(N2C(=O)CCC2(CO)CO)c(N)c1
192 to 200 °C	Nc1ccc(C(=O)N2CCC=Cc3sccc32)c(Cl)c1
87 to 88 °C	CCC1(C)CC(=O)C(C(=O)Nc2ccc(Cl)c(C(F)(F)F)c2)C(=O)C1 (stereo unspecified)
175 to 176 °C	CCc1c(C(=O)c2cc(C)cc(C)c2)n(CC=CC(=O)OC(C)C)c(=O)[nH]c1=O
99 to 101 °C	CCCCN=C1SC(=CC(=O)O)C(=O)N1CCCC
170 to 171 °C	CNC(=NCCSCc1[nH]cnc1C)P(=O)(O)OC
190 to 191 °C	CCCCOc1ccccc1-c1ccc(C(N)=O)c(=O)[nH]1
176 to 178 °C	CS(=O)(=O)N(c1ccc(C(=O)NC2CCN(C3CCCCC3)C2)cc1)S(C)(=O)=O (stereo unspecified)
166 to 170 °C	Cc1ncc(C(=O)O)cn1
171 to 172 °C	CC(=O)OCc1ccc(-c2nc(=O)c3ccccc3s2)cn1
160 to 161 °C	CS(=O)(=O)c1ccc(C(CC2CCCC2)c2nc(Br)c(C(=O)C3CC3)[nH]2)cc1 (stereo unspecified)
236 to 237 °C	CCNC(=O)CC1CN=C(c2cc3cc(Oc4ccc(S(C)(=O)=O)nc4)cc(OC)c3[nH]2)S1 (stereo unspecified)
